ChEMBL document CHEMBL1201862, “PubChem BioAssay data set” (2004)
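Five concentrations, 48 hours, 96-well plates. The concentration for 50% growth inhibition is given as GI50.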 Activity calls are given as the source filed them. No stated cut-off is given here; in the data, active = GI50 up to about 1.1 µM and inactive = higher.

Assays:
Test in all cases: growth of human tumour cells (NCI), 48 h
[1] = system: 786-0
[2] = system: A498
[3] = system: A549
[4] = system: ACHN
[5] = system: BT-549
[6] = system: CCRF-CEM
[7] = system: COLO 205
[8] = system: DLD-1
[9] = system: DMS-114
[10] = system: DMS-273
[11] = system: DU-145
[12] = system: EKVX
[13] = system: HCC 2998
[14] = system: HCT-116
[15] = system: HCT-15
[16] = system: HL-60
[17] = system: HOP-62
[18] = system: HOP-92
[19] = system: HT-29
[20] = system: IGROV-1
[21] = system: K562
[22] = system: KM-20L2
[23] = system: KM12
[24] = system: LOX IMVI
[25] = system: LXFL 529
[26] = system: M14
[27] = system: M19-MEL
[28] = system: MCF7
[29] = system: MDA-MB-231
[30] = system: MDA-N
[31] = system: MOLT-4
[32] = system: Malme-3M
[33] = system: NCI-H226
[34] = system: NCI-H23
[35] = system: NCI-H460
[36] = system: NCI-H522
[37] = system: NCI/ADR-RES
[38] = system: OVCAR-3
[39] = system: OVCAR-4
[40] = system: OVCAR-5
[41] = system: OVCAR-8
[42] = system: PC-3
[43] = system: RPMI-8226
[44] = system: RXF 393
[45] = system: SF-268
[46] = system: SF-295
[47] = system: SF-539
[48] = system: SK-MEL-28
[49] = system: SK-MEL-2
[50] = system: SK-MEL-5
[51] = system: SK-OV-3
[52] = system: SN12C
[53] = system: SNB-19
[54] = system: SNB-75
[55] = system: SNB-78
[56] = system: SR
[57] = system: SW-620
[58] = system: T47D
[59] = system: TK-10
[60] = system: U-251
[61] = system: UACC-257
[62] = system: UACC-62
[63] = system: UO-31
[64] = system: CAKI-1
[65] = system: Hs-578T
[66] = system: MDA-MB-435

In the case of `CCOC(=O)CSc1nnc(C(Sc2nc(-c3ccccc3)c(-c3ccccc3)[nH]2)C(C)C)n1-c1ccccc1` (configuration not stated), the GI50 [1] is reported as 16 µM (inactive), the GI50 [2] is reported as > 10 µM (inactive) and the GI50 [3] is reported as 19.2 µM (inactive). For the same molecule, the GI50 [4] was 19.7 µM (inactive), the GI50 [5] was 24.5 µM (inactive) and the GI50 [6] was 14.3 µM (inactive). The GI50 [7] was 17 µM (inactive), the GI50 [8] was > 10 µM (inactive) and the GI50 [9] was > 10 µM (inactive). The GI50 [10] was > 10 µM (inactive), the GI50 [11] was 39.6 µM (inactive) and the GI50 [12] was 21.2 µM (inactive). For the same molecule, the GI50 [13] was 19.2 µM (inactive), the GI50 [14] was 14.5 µM (inactive) and the GI50 [15] was 18.1 µM. For the same molecule, the GI50 [16] was 20 µM (inactive), the GI50 [17] was > 10 µM (inactive) and the GI50 [18] was > 10 µM (inactive). For the same molecule, the GI50 [19] was 14 µM (inactive), the GI50 [20] was > 10 µM (inactive) and the GI50 [21] was 24.7 µM (inactive). The GI50 [22] was > 10 µM (inactive), the GI50 [23] was 17.7 µM (inactive) and the GI50 [24] was 13.7 µM (inactive). The GI50 [25] was > 10 µM (inactive), the GI50 [26] was 14.3 µM (inactive) and the GI50 [27] was > 10 µM (inactive). The GI50 [28] was 34.7 µM (inactive), the GI50 [29] was 24.4 µM (inactive) and the GI50 [30] was 30.4 µM (inactive). For the same molecule, the GI50 [31] was 17.1 µM (inactive), the GI50 [32] was 17.5 µM (inactive) and the GI50 [33] was 17.1 µM (inactive). The GI50 [34] was > 10 µM (inactive), the GI50 [35] was 17.5 µM (inactive) and the GI50 [36] was 15.2 µM (inactive). For the same molecule, the GI50 [37] was 26.9 µM (inactive), the GI50 [38] was > 10 µM (inactive) and the GI50 [39] was 17.5 µM (inactive). The GI50 [40] was 18.9 µM (inactive), the GI50 [41] was 19.1 µM (inactive) and the GI50 [42] was 28.6 µM (inactive). For the same molecule, the GI50 [43] was 33.4 µM (inactive), the GI50 [44] was 26.2 µM (inactive) and the GI50 [45] was 17.9 µM (inactive). The GI50 [46] was > 10 µM (inactive), the GI50 [47] was 13 µM (inactive) and the GI50 [48] was 18.2 µM (inactive). For the same molecule, the GI50 [49] was 16.1 µM (inactive), the GI50 [50] was > 10 µM (inactive) and the GI50 [51] was > 10 µM (inactive). For the same molecule, the GI50 [52] was 15.9 µM (inactive), the GI50 [53] was 21.9 µM (inactive) and the GI50 [54] was > 10 µM (inactive). The GI50 [55] was > 10 µM (inactive), the GI50 [56] was 31.2 µM (inactive) and the GI50 [57] was 19 µM (inactive). For the same molecule, the GI50 [58] was 28.3 µM (inactive), the GI50 [59] was 21.5 µM (inactive) and the GI50 [60] was > 10 µM (inactive). For the same molecule, the GI50 [61] was 14 µM (inactive), the GI50 [62] was > 10 µM (inactive) and the GI50 [63] was 17.4 µM (inactive).
In the case of `CCCCCCCCCCCCC1N=C(N)N2CCCC2=C1C(=O)OC` (configuration not stated), the GI50 [1] is reported as 1.74 µM (inactive), the GI50 [2] is reported as 22.6 µM (inactive) and the GI50 [3] is reported as 8.67 µM (inactive). The GI50 [4] was 5.38 µM (inactive), the GI50 [5] was 10.9 µM (inactive) and the GI50 [64] was 3.24 µM (inactive). For the same molecule, the GI50 [6] was 1.61 µM (inactive), the GI50 [7] was 1.95 µM (inactive) and the GI50 [11] was 8.07 µM (inactive). For the same molecule, the GI50 [12] was 14.7 µM (inactive), the GI50 [13] was 1.84 µM (inactive) and the GI50 [14] was 1.73 µM (inactive). The GI50 [15] was 1.79 µM, the GI50 [16] was 1.85 µM (inactive) and the GI50 [17] was 4.24 µM (inactive). The GI50 [18] was 4.35 µM (inactive), the GI50 [19] was 1.67 µM (inactive) and the GI50 [65] was 2.25 µM (inactive). The GI50 [20] was 3.22 µM (inactive), the GI50 [21] was 1.38 µM (inactive) and the GI50 [23] was 1.98 µM (inactive). The GI50 [24] was 1.51 µM (inactive), the GI50 [26] was 1.73 µM (inactive) and the GI50 [28] was 1.77 µM (inactive). For the same molecule, the GI50 [29] was 1.9 µM (inactive), the GI50 [66] was 1.86 µM (inactive) and the GI50 [30] was 1.95 µM (inactive). For the same molecule, the GI50 [31] was 1.47 µM (inactive), the GI50 [32] was 1.8 µM (inactive) and the GI50 [33] was 19.1 µM (inactive). The GI50 [34] was 2.26 µM (inactive), the GI50 [35] was 1.79 µM (inactive) and the GI50 [36] was 1.76 µM (inactive). The GI50 [37] was 5.92 µM (inactive), the GI50 [38] was 2.14 µM (inactive) and the GI50 [39] was 2.31 µM (inactive). For the same molecule, the GI50 [40] was 6.25 µM (inactive), the GI50 [41] was 2.49 µM (inactive) and the GI50 [42] was 1.62 µM (inactive). For the same molecule, the GI50 [43] was 1.82 µM (inactive), the GI50 [44] was 47.8 µM (inactive) and the GI50 [45] was 3.44 µM (inactive). For the same molecule, the GI50 [46] was 1.78 µM (inactive), the GI50 [47] was 5.41 µM (inactive) and the GI50 [48] was 1.69 µM (inactive). For the same molecule, the GI50 [49] was 2.32 µM (inactive), the GI50 [50] was 2.42 µM (inactive) and the GI50 [51] was 8.49 µM (inactive). For the same molecule, the GI50 [52] was 2.75 µM (inactive), the GI50 [53] was 1.8 µM (inactive) and the GI50 [54] was 1.54 µM (inactive). The GI50 [56] was 2.13 µM (inactive), the GI50 [57] was 1.7 µM (inactive) and the GI50 [58] was 1.69 µM (inactive). The GI50 [59] was 7.62 µM (inactive), the GI50 [60] was 1.65 µM (inactive) and the GI50 [61] was 1.86 µM (inactive). The GI50 [62] was 1.74 µM (inactive) and the GI50 [63] was 8.26 µM (inactive).
